Measured values as given in ChEMBL document CHEMBL1201862, “PubChem BioAssay data set” (2004).
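Cultured in 96-well plates, cells were exposed to test compound for 48 hours across five concentrations. The concentration for 50% growth inhibition is given as GI50.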 Activity calls are given as the source filed them. Rule as the data show it: active = GI50 up to about 1.1 µM and inactive = higher.

Assays:
Assay in all cases: NCI tumour cell line growth inhibition, 48 h
786-0 = system: 786-0
MOLT-4 = system: MOLT-4
K562 = system: K562
SK-OV-3 = system: SK-OV-3
NCI-H23 = system: NCI-H23
M14 = system: M14
SW-620 = system: SW-620
SN12C = system: SN12C
SK-MEL-5 = system: SK-MEL-5
NCI-H522 = system: NCI-H522
ACHN = system: ACHN
IGROV-1 = system: IGROV-1
A498 = system: A498
OVCAR-5 = system: OVCAR-5
UACC-62 = system: UACC-62
SNB-75 = system: SNB-75

Row | SMILES | GI50 (786-0) | GI50 (MOLT-4) | GI50 (K562) | GI50 (SK-OV-3) | GI50 (NCI-H23) | GI50 (M14) | GI50 (SW-620) | GI50 (SN12C) | GI50 (SK-MEL-5) | GI50 (NCI-H522) | GI50 (ACHN) | GI50 (IGROV-1) | GI50 (A498) | GI50 (OVCAR-5) | GI50 (UACC-62) | GI50 (SNB-75)
1 | O=C1CCC2(CCC(=O)NC2=O)C(=O)N1 | > 100 µM (inactive) | > 100 µM (inactive) | > 100 µM (inactive) | > 100 µM (inactive) | > 100 µM (inactive) | > 100 µM (inactive) | > 100 µM (inactive) | > 100 µM (inactive) | > 100 µM (inactive) | > 100 µM (inactive) | > 100 µM (inactive) | > 100 µM (inactive) |  |  |  | 
2 | O=C(NO)C(=O)Nc1cc(Cl)ccc1Cl | > 100 µM (inactive) | 83.6 µM (inactive) | 63.8 µM (inactive) | > 100 µM (inactive) | > 100 µM (inactive) | > 100 µM (inactive) | > 100 µM (inactive) | > 100 µM (inactive) | > 100 µM (inactive) | 23.9 µM (inactive) | > 100 µM (inactive) | 20.1 µM (inactive) | > 100 µM (inactive) | > 100 µM (inactive) | > 100 µM (inactive) | > 100 µM (inactive)
3 | Cc1ccc(C2(C)NC(=S)N(NC(N)=S)C2=S)cc1 (stereo unspecified) | 81.1 µM (inactive) | 46.3 µM (inactive) | 39.6 µM (inactive) |  | > 100 µM (inactive) | > 100 µM (inactive) | 87.7 µM (inactive) | > 100 µM (inactive) | > 100 µM (inactive) |  | > 100 µM (inactive) | > 100 µM (inactive) | > 100 µM (inactive) |  | 43.2 µM (inactive) | 25.3 µM (inactive)
4 | CCOP(=O)(C/C(=N/NC(C)(C)C)C(=O)Nc1nc2ccc(C)cc2s1)OCC | > 100 µM (inactive) | > 100 µM (inactive) | > 100 µM (inactive) | > 100 µM (inactive) | > 100 µM (inactive) | > 100 µM (inactive) | > 100 µM (inactive) | > 100 µM (inactive) | > 100 µM (inactive) | > 100 µM (inactive) | > 100 µM (inactive) | > 100 µM (inactive) | > 100 µM (inactive) | > 100 µM (inactive) | > 100 µM (inactive) | > 100 µM (inactive)
5 | Cc1ccc(SSCCCS(=O)O)cc1 | 40.4 µM (inactive) | 15.2 µM (inactive) | 0.766 µM (active) | 49.2 µM (inactive) | 39 µM (inactive) | 38.6 µM (inactive) | 34.2 µM (inactive) | 21.6 µM (inactive) | 30.1 µM (inactive) | 18.1 µM (inactive) | 37.4 µM (inactive) | 7.93 µM (inactive) | 28.1 µM (inactive) | 74.6 µM (inactive) | 27.2 µM (inactive) | 21.8 µM (inactive)
6 | N#CCCN(c1ccc(-c2nnc(NC(=O)CNNC(=O)CC(=O)Nc3ccccc3)s2)cc1)S(=O)(=O)c1ccccc1 | > 100 µM (inactive) | 45.3 µM (inactive) | 49.2 µM (inactive) | > 100 µM (inactive) | 76.6 µM (inactive) |  | > 100 µM (inactive) | > 100 µM (inactive) | 52.1 µM (inactive) | 42.1 µM (inactive) | > 100 µM (inactive) | > 100 µM (inactive) | > 100 µM (inactive) | > 100 µM (inactive) | 50.8 µM (inactive) | 29 µM (inactive)
7 | COc1cc([C@@H]2c3cc4c(cc3[C@@H](OC(=O)c3ccc(N)cc3)C3COC(=O)[C@@H]32)OCO4)cc(OC)c1O (stereo partly specified) | 7.08 µM (inactive) | 3.1 µM (inactive) | 5.18 µM (inactive) | 3.2 µM (inactive) | 3.32 µM (inactive) | 16.8 µM (inactive) | 5.71 µM (inactive) | 4.21 µM (inactive) | 3.59 µM (inactive) | 2.07 µM (inactive) | 7.74 µM (inactive) | 2.8 µM (inactive) | 5.82 µM (inactive) | 41.5 µM (inactive) | 4.91 µM (inactive) | 3.21 µM (inactive)
8 | C/C(CC(=O)Nc1ccc([N+](=O)[O-])cc1)=N/N=C(N)N | > 100 µM (inactive) | > 100 µM (inactive) | > 100 µM (inactive) | > 100 µM (inactive) | > 100 µM (inactive) | > 100 µM (inactive) | > 100 µM (inactive) |  | > 100 µM (inactive) | > 100 µM (inactive) | > 100 µM (inactive) | > 100 µM (inactive) |  | > 100 µM (inactive) | > 100 µM (inactive) | > 100 µM (inactive)
9 | O=[N+]([O-])c1ccc(C(O)/C(=N/O)c2nc3ccc(Cl)cc3nc2O)cc1 (stereo unspecified) | > 100 µM (inactive) | > 100 µM (inactive) | > 100 µM (inactive) | > 100 µM (inactive) |  | > 100 µM (inactive) | > 100 µM (inactive) | > 100 µM (inactive) | > 100 µM (inactive) |  | > 100 µM (inactive) | > 100 µM (inactive) | > 100 µM (inactive) |  | > 100 µM (inactive) | > 100 µM (inactive)
